{"source": "patent US11766434B2", "about": "“Pyrimidinone derivatives as CDC7 inhibitors” (Cancer Research Technology Limited, priority 2016, dated 2023)", "data": [{"biological_target": "Cdc7 (Homo sapiens, UniProt O00311)", "sequence (O00311 whole entry)": "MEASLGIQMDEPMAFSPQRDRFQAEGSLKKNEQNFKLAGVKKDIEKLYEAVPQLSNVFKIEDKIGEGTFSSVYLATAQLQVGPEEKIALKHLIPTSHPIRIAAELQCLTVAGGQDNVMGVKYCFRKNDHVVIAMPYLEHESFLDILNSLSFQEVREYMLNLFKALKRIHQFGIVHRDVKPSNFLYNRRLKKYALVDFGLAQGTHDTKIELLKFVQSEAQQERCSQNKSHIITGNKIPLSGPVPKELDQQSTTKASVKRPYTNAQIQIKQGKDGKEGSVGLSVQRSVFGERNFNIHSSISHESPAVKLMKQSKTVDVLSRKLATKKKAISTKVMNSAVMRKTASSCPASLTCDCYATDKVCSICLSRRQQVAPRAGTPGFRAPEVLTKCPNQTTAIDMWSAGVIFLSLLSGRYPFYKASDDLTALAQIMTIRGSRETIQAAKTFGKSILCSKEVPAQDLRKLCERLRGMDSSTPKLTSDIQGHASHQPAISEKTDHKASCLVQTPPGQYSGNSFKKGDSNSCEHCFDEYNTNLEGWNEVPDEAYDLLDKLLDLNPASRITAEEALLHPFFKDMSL", "sequence (Q9UBU7 whole entry partner)": "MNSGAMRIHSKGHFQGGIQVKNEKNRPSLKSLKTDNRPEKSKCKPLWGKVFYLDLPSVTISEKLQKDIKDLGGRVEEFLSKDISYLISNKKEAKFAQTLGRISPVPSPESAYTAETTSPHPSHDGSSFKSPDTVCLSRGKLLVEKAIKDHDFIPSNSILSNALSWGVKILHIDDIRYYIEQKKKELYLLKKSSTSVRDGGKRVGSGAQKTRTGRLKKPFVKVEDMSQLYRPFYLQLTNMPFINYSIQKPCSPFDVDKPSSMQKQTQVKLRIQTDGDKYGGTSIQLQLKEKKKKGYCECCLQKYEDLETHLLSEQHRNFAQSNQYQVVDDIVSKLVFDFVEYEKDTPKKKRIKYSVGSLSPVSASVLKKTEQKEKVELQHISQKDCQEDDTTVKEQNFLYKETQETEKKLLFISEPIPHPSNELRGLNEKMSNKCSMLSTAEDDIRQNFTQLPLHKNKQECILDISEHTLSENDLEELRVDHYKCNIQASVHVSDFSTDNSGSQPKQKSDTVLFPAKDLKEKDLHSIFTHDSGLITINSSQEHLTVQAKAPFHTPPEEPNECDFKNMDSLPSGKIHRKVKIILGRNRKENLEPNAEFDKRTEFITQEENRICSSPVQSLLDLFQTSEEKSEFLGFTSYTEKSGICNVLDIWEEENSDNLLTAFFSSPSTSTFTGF", "assay": "Cdc7 cell pharmacodynamics assay Method 1: pS53MCM2 levels in HCT116 cells", "format": "cell-based", "design": "endogenous in cells", "conditions": "6 hours treatment, read-out: Biomarker Method 1 (pEC50) (converted)", "from_the_text": "This protocol describes a method to investigate the inhibition of Cdc7 activity of compounds by measuring pS53MCM2 levels in cells after treatment.\n• HCT116 cells (wild type P53 positive) • McCoys 5A media (PAA Laboratories Ltd, E15-022) • 10% FCS (Sera Laboratories International Ltd, EU000F Batch: 108005) • 100× L-Glutamine (Invitrogen, 25030-024) • D-PBS without CaCl2 and MgCl2 (Invitrogen, ref. 14190-094) • Trypsin/EDTA (Invitrogen 25300-054) • 2% BSA in PBS • Cell Extraction Buffer (Invitrogen FNN0011) • Protease inhibitor cocktail (Sigma P-2714) • PMSF 0.3M stock in DMSO (Sigma P7626) • Antibody—rabbit pMCM2 Ser53 (Bethyl #A300-756A) • Antibody—goat MCM2 (Bethyl #A300-122A) • Antibody—goat Anti Rabbit IgG HRP (Perbio Science UK Ltd 31462) • 1×PBS • FACE Wash buffer (0.02% Triton X100 in 1×PBS) • SuperSignal ELISA Pico Chemiluminescent Substrate (Perbio Science UK Ltd 37070) Method • 72 hours prior to the start of the experiment plate 1×10^6 HCT116 cells in a 150 cm^2 flask in complete McCoys 5A media (+10% FCS+1× L-glutamine). • Plate 20,000 HCT116 cells per well in standard TC treated 96 well plate in 100 μL complete McCoys 5A media. • Allow cells to settle overnight in incubator set at 37° C. and 5% CO2. • Remove intermediate plate from fridge and place at 37° C. overnight to allow to equilibrate. • Cell treatment: cell assay plate 100 μL; daughter to cell transfer volume 3.33 μL; daughter volume 45 μL; mother plate to daughter volume 5 μL. • Once all cells are treated remove the cells to the incubator and incubate for 6 hours. • Dilute the capture antibody (total MCM2 #A300-122A) 1 in 250 in the required volume of PBS (5 mL per assay plate) and add 50 μL to each well of a Hybond plate excluding wells 12E to 12H. In these wells add 50 μL PBS. Seal the plate and incubate at room temperature fora minimum of 2 hours. • Defrost aliquot of Invitrogen Cell Extraction Buffer (FNN0011) on ice and supplement with appropriate volume of both Sigma protease inhibitor cocktail (P-2714) and PMSF (final cone 1 mM from a […] in DMSO). • After the 6 hour cell treatment time tap out the media from the assay plates and place them in the −70° C. freezer for at least 5 minutes. • Remove plates from freezer and add 20 μL of ice cold complete lysis buffer on ice. Incubate cells for 30 minutes at 4° C. • Add 80 μL per well 2% BSA. • Transfer 80 μL from the lysis plate to the same wells in the capture/ELISA plate. Cover with plate seal and incubate plates overnight at 4° C. • Wash plates with PBS, remove any residual remaining liquid and add 50 μL per well of pMCM2 Ser53 antibody (#A300-756A) diluted 1 in 100 in 2% BSA. Cover plate and incubate at room temperature for 2 hours with gentle shaking. • Wash plates with PBS, remove any residual remaining liquid and Incubate with 50 μL goat anti rabbit antibody (1 in 800 dilution in 2% BSA) for 1 hour at room temperature. • Wash plates with PBS, remove any residual remaining liquid and add 50 μL mixed SuperSignal Pico substrate. • Incubate each plate for 5 minutes at room temperature shielding the plates from direct light (with a cover plate). Read plates with the luminescent detection. Method 2", "units": {"EC50": "µM"}, "values": [{"molecule": "O=c1[nH]c(-c2scnc2Cl)nc(C2CCOCC2)c1Cl", "note": "[Compound 4, 5-chloro-2-(4-chlorothiazol-5-yl)-4-tetrahydropyran-4-yl-1H-pyrimidin-6-one]", "EC50": 0.0457}, {"molecule": "Cc1ncsc1-c1nc(C2CCOCC2)c(Cl)c(=O)[nH]1", "note": "[Compound 6, 5-chloro-2-(4-methylthiazol-5-yl)-4-tetrahydropyran-4-yl-1H-pyrimidin-6-one]", "EC50": 0.107}, {"molecule": "O=c1[nH]c(-c2scnc2C(F)(F)F)nc(C2CCOCC2)c1Cl", "note": "[Compound 14, 5-chloro-4-tetrahydropyran-4-yl-2-[4-(trifluoromethyl)thiazol-5-yl]-1H-pyrimidin-6-one]", "EC50": 0.158}, {"molecule": "O=c1[nH]c(-c2cn[nH]c2C(F)(F)F)nc(C2CCOCC2)c1Cl", "note": "[Compound 17, 5-chloro-4-tetrahydropyran-4-yl-2-[5-(trifluoromethyl)-1H-pyrazol-4-yl]-1H-pyrimidin-6-one]", "EC50": 0.112}, {"molecule": "Cc1ncsc1-c1nc(N2CCN[C@@H](C(F)(F)F)C2)c(Cl)c(=O)[nH]1", "note": "[Compound 28, 5-chloro-2-(4-methylthiazol-5-yl)-4-[(3R)-3-(trifluoromethyl)piperazin-1-yl]-1H-pyrimidin-6-one]", "EC50": 0.0457}]}]}
